Laboratory results reported in paper PMC7702301 (Biochemical Journal, 2020).
One block for each molecule: values may come before it.

What was measured:
[1] = system: RIPK1; conditions: phosphorylation mimicked by a glutamate residue; cited from earlier work
[2] = target: T1, MerTK (Homo sapiens, UniProt Q12866); experiment: Surface plasmon resonance, MerTK; format: binding; conditions: read-out: residence times
T1 sequence (Q12866 528-999): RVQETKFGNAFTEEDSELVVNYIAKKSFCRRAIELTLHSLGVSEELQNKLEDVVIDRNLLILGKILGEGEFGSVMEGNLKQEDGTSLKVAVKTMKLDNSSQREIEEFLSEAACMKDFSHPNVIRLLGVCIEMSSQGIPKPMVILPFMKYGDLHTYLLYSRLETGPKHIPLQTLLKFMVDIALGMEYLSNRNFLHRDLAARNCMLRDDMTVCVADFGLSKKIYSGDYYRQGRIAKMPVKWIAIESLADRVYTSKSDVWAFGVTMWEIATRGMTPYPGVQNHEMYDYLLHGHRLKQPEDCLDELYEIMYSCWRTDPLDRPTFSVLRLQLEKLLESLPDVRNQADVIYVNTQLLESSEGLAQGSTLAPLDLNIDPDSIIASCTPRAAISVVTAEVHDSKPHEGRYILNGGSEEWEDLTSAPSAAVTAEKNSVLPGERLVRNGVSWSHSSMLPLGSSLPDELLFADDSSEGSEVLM

[3] = system: MerTK; conditions: cited from earlier work
[4] = target: T2, dephosphorylated MerTK (Homo sapiens, UniProt Q12866); experiment: Surface plasmon resonance, dephosphorylated MerTK; format: binding
T2 sequence (Q12866 528-999): T1 sequence (Q12866 528-999)

SMILES: CN1C(=O)C(Cc2c[nH]c3ccccc23)NC1=S (stereo not shown) [Nec-1]
drop of affinity for RIPK1 upon phosphorylation of Ser161 [1]: ~10 fold

residence time [2]: < 1 min
SMILES: CCc1nc(C(N)=O)c(Nc2ccc(N3CCC(N4CCN(C)CC4)CC3)c(OC)c2)nc1NC1CCOCC1 [gilteritinib]
off-target activity against MerTK [3]: double-digit nanomolar

residence time [4]: > 120 min
SMILES: Cc1ccc(C(=O)Nc2ccc(Oc3cc4cnn(C)c4cc3-c3cn[nH]c3)c(F)c2)c(=O)n1-c1ccc(F)cc1 [merestinib]
